Test results taken from patent US8952037B2, “Heteroaryloxycarbocyclyl compounds as PDE10 inhibitors” (Amgen Inc., priority 2010, dated 2015).
Read-outs that look alike come from different tables or passages of the source.

Biological target: PDE10
Experiment: MPDE10A7 enzyme inhibition, IMAP TR-FRET assay
Format: biochemical
Protocol: MPDE10A7 Enzyme Activity and Inhibition
Enzyme Activity. An IMAP TR-FRET assay was used to analyze the enzyme activity (Molecular Devices Corp., Sunnyvale Calif.). 5 μL, of serial diluted PDE10A (BPS Bioscience, San Diego, Calif.) or tissue homogenate was incubated with equal volumes of diluted fluorescein labeled cAMP or cGMP for 60 min in 384-well polystyrene assay plates (Corning, Corning, N.Y.) at room temperature. After incubation, the reaction was stopped by adding 60 μL, of diluted binding reagents and was incubated for 3 hours to overnight at room temperature. The plates were read on an Envision (Perkin Elmer, Waltham, Mass.) for time resolved fluorescence resonance energy transfer. The data were analyzed with GraphPad Prism (La Jolla, Calif.).
Enzyme Inhibition. To check the inhibition profile, 5 μL, of serial diluted compounds were incubated with 5 μL, of diluted PDE10 enzyme (BPS Bioscience, San Diego, Calif.) or tissue homogenate in a 384-well polystyrene assay plate (Corning, Corning, N.Y.) for 30 min at room temperature. After incubation, 10 μL, of diluted fluorescein labeled cAMP or cGMP substrate were added and incubated for 60 min at room temperature. The reaction was stopped by adding 60 μL of diluted binding reagents and plates were read on an Envision (Perkin Elmer, Waltham, Mass.) for time resolved fluorescence resonance energy transfer. The data were analyzed with GraphPad Prism (La Jolla, Calif.).

[1] = separated enantiomers, absolute stereochemistry not determined, value can be for either enantiomer of the pair, read-out: IC50

IC50 (read-out: PDE10 IC50) | Compound | IC50 [1]
49.8 nM | CN1CCC(c2nccnc2O[C@H]2C[C@@H](Nc3nc4ccccc4s3)C2)CC1 [Example 74, N-((1S,3S)-3-((3-(1-methylpiperidin-4-yl)pyrazin-2-yl)oxy)cyclobutyl)benzo[d]thiazol-2-amine] | 
 | OC[C@H]1CCCN(c2nccnc2OC2CC(Nc3nc4ccccc4s3)C2)C1 (stereo partly drawn) [Example 91, ((S)-1-(3-((1S,3R)-3-(benzo[d]thiazol-2-ylamino)cyclobutoxy)pyrazin-2-yl)piperidin-3-yl)methanol] | 26 nM
 | OC[C@@H]1CCCN(c2nccnc2OC2CC(Nc3nc4ccccc4s3)C2)C1 (stereo partly drawn) [Example 92, ((R)-1-(3-((1S,3S)-3-(benzo[d]thiazol-2-ylamino)cyclobutoxy)pyrazin-2-yl)piperidin-3-yl)methanol] | 2.81 nM
 | C[C@H]1CCN(c2nccnc2OC2CC(Nc3nc4ccccc4s3)C2)C1 (stereo partly drawn) [Example 93, N-((1S,3S)-3-((3-((R)-3-methylpyrrolidin-1-yl)pyrazin-2-yl)oxy)cyclobutyl)benzo[d]thiazol-2-amine] | 3.24 nM
 | C[C@H]1CCN(c2nccnc2OC2CC(Nc3nc4ccccc4s3)C2)C1 (stereo partly drawn) [Example 94, N-((1R,3S)-3-((3-((S)-3-methylpyrrolidin-1-yl)pyrazin-2-yl)oxy)cyclobutyl)benzo[d]thiazol-2-amine] | 8.02 nM
 | N#C[C@@H]1CCN(c2nccnc2OC2CC(Nc3nc4ccccc4s3)C2)C1 (stereo partly drawn) [Example 95, (R)-1-(3-((1S,3S)-3-(benzo[d]thiazol-2-ylamino)cyclobutoxy)pyrazin-2-yl)pyrrolidine-3-carbonitrile] | 0.728 nM
 | N#C[C@H]1CCN(c2nccnc2OC2CC(Nc3nc4ccccc4s3)C2)C1 (stereo partly drawn) [Example 96, (S)-1-(3-((1S,3R)-3-(benzo[d]thiazol-2-ylamino)cyclobutoxy)pyrazin-2-yl)pyrrolidine-3-carbonitrile] | 5.27 nM
3.35 nM | F[C@H]1CCN(c2nccnc2OC2CC(Nc3nc4ccccc4s3)C2)C1 (stereo partly drawn) [Example 97, N-((1S,3S)-3-((3-(3-fluoropyrrolidin-1-yl)pyrazin-2-yl)oxy)cyclobutyl)benzo[d]thiazol-2-amine] | 
17.7 nM | FC1(F)CCN(c2nccnc2OC2CC(Nc3nc4ccccc4s3)C2)CC1 [Example 99, N-((1S,3S)-3-((3-(4,4-difluoropiperidin-1-yl)pyrazin-2-yl)oxy)cyclobutyl)benzo[d]thiazol-2-amine] | 
0.758 nM | Fc1ccc(C2CCOCC2)c(OC2CC(Nc3nc4ccccc4s3)C2)n1 [Example 105, N-((1S,3S)-3-((6-fluoro-3-(tetrahydro-2H-pyran-4-yl)pyridin-2-yl)oxy)cyclobutyl)benzo[d]thiazol-2-amine] | 
590 nM | N#Cc1ccc(N[C@H]2C[C@@H](Oc3ncccc3C3CCOCC3)C2)nc1 [Example 106, 6-(((1S,3S)-3-((3-(tetrahydro-2H-pyran-4-yl)pyridin-2-yl)oxy)cyclobutyl)amino)nicotinonitrile] | 
865 nM | N#Cc1ccc(N[C@H]2C[C@H](Oc3ncccc3C3CCOCC3)C2)nc1 [Example 107, 6-(((1R,3R)-3-((3-(tetrahydro-2H-pyran-4-yl)pyridin-2-yl)oxy)cyclobutyl)amino)nicotinonitrile] | 
436 nM | FC(F)(F)c1ccc(N[C@H]2C[C@H](Oc3ncccc3C3CCOCC3)C2)nc1 [Example 108, N-((1R,3R)-3-((3-(tetrahydro-2H-pyran-4-yl)pyridin-2-yl)oxy)cyclobutyl)-5-(trifluoromethyl)pyridin-2-amine] | 
106 nM | FC(F)(F)c1ccc(N[C@H]2C[C@@H](Oc3ncccc3C3CCOCC3)C2)nc1 [Example 109, N-((1S,3S)-3-((3-(tetrahydro-2H-pyran-4-yl)pyridin-2-yl)oxy)cyclobutyl)-5-(trifluoromethyl)pyridin-2-amine] | 
26.2 nM | Clc1ccc(N[C@H]2C[C@@H](Oc3ncccc3C3CCOCC3)C2)nc1 [Example 110, 5-chloro-N-((1S,3S)-3-((3-(tetrahydro-2H-pyran-4-yl)pyridin-2-yl)oxy)cyclobutyl)pyridin-2-amine] | 
83.7 nM | Clc1ccc(N[C@H]2C[C@H](Oc3ncccc3C3CCOCC3)C2)nc1 [Example 111, 5-chloro-N-((1R,3R)-3-((3-(tetrahydro-2H-pyran-4-yl)pyridin-2-yl)oxy)cyclobutyl)pyridin-2-amine] | 
12400 nM | CC(=O)N1CCC(c2cccnc2OC2CC(NS(=O)(=O)c3ccc(C)cc3)C2)CC1 [Example 114, N-((1S,3S)-3-((3-(1-acetylpiperidin-4-yl)pyridin-2-yl)oxy)cyclobutyl)-4-methylbenzenesulfonamide] | 
916 nM | CC(=O)N1CCC(c2cccnc2OC2CC(NS(=O)(=O)c3ccc(C)cc3)C2)CC1 [Example 115, N-((1R,3R)-3-((3-(1-acetylpiperidin-4-yl)pyridin-2-yl)oxy)cyclobutyl)-4-methylbenzenesulfonamide] | 
959 nM | FC(F)(F)c1ccc(NC2CC(Oc3ncncc3C3CCOCC3)C2)nc1 [Example 116, N-((1R,3R)-3-((5-(tetrahydro-2H-pyran-4-yl)pyrimidin-4-yl)oxy)cyclobutyl)-5-(trifluoromethyl)pyridin-2-amine] | 
321 nM | FC(F)(F)c1ccc(NC2CC(Oc3ncncc3C3CCOCC3)C2)nc1 [Example 117, N-((1S,3S)-3-((5-(tetrahydro-2H-pyran-4-yl)pyrimidin-4-yl)oxy)cyclobutyl)-5-(trifluoromethyl)pyridin-2-amine] | 
0.1 nM | TRANS-BENZOTHIAZOL-2-YL-{3-[5-FLUORO-3-(TETRAHYDRO-PYRAN-4-YL)-PYRIDIN-2-YL]-CYCLOBUTYL}-AMINE [Example 5B] | 

Compound | IC50 (read-out: PDE10 IC50) | IC50 [1]
O=C(CO)N1CCC(c2nccnc2OC2CC(Nc3nc4ccccc4s3)C2)CC1 [Example 73, 1-(4-(3-((1S,3S)-3-(benzo[d]thiazol-2-ylamino)cyclobutoxy)pyrazin-2-yl)piperidin-1-yl)-2-hydroxyethanone] | 4.81 nM | 
O=C1CCN(c2nccnc2OC2CC(Nc3nc4ccccc4s3)C2)CC1 [Example 98, 1-(3-((1S,3S)-3-(benzo[d]thiazol-2-ylamino)cyclobutoxy)pyrazin-2-yl)piperidin-4-one] | 21.1 nM | 
CC(O)C1CCN(c2nccnc2OC2CC(Nc3nc4ccccc4s3)C2)CC1 [Example 102, 1-(1-(3-((1S,3S)-3-(benzo[d]thiazol-2-ylamino)cyclobutoxy)pyrazin-2-yl)piperidin-4-yl)ethanol] | 10.8 nM | 
